Test results reported in patent publication US8841294B2, “Active ingredient combinations having insecticidal and acaricidal properties” (Bayer Cropscience AG, priority 1999, dated 2014).

Key:
Type in all cases: in vivo
[1] = tested on: peach aphid (Myzus persicae); assay: Myzus test; conditions: single active compound, 1.6 ppm, cabbage leaves dipped
Experimental: (§1) To produce a suitable preparation of active compound, 1 part by weight of active compound is mixed with the stated amounts of solvent and emulsifier, and the concentrate is diluted with water to the desired concentrations.
Cabbage leaves (Brassica oleracea) which are heavily infested by the peach aphid (Myzus persicae) are treated by being dipped into the preparation of active compound of the desired concentration.
After the desired period of time, the kill in % is determined. 100% means that all animals have been killed; 0% means that none of the animals have been killed. The kill rates determined are assessed using Colby's formula.

[2] = tested on: larvae of the cotton aphid (Aphis gossypii); assay: Aphis gossypii test/larval mortality; conditions: single active compound, 1.6 ppm, cotton leaves dipped
Experimental: Aphis Gossypii Test/Larval Mortality
as §1
Cotton leaves (Gossypium hirsutum) which are heavily infested by adults and larvae of the cotton aphid (Aphis gossypii) are treated by being dipped into the preparation of active compound of the desired concentration.
After the desired period of time, the kill of larvae in % is determined. 100% means that all larvae have been killed; 0% means that none of the larvae have been killed. The kill rates that are determined are assessed using Colby's formula.

[3] = tested on: cotton aphid (Aphis gossypii); assay: Aphis gossypii test; conditions: single active compound, 1.6 ppm, cotton leaves dipped
Experimental: as §1
Cotton leaves (Gossypium hirsutum) which are heavily infested by the cotton aphid (Aphis gossypii) are treated by being dipped into the preparation of active compound of the desired concentration.
After the desired period of time, the kill in % is determined. 100% means that all aphids have been killed; 0% means that none of the aphids have been killed. The kill rates that are determined are assessed using Colby's formula.

[4] = tested on: larvae of the peach aphid (Myzus persicae); assay: Myzus test/larval mortality; conditions: single active compound, 0.32 ppm, cabbage leaves dipped
Experimental: Myzus Test/Larval Mortality
as §1
Cabbage leaves (Brassica oleracea) which are heavily infested by adults and larvae of the peach aphid (Myzus persicae) are treated by being dipped into the preparation of active compound of the desired concentration.
After the desired period of time, the kill of the larvae in % is determined. 100% means that all larvae have been killed; 0% means that none of the larvae have been killed. The kill rates determined are assessed using Colby's formula.

O=[N+]([O-])/N=C1\NCCN1Cc1ccc(Cl)nc1 [Ex. (IIa)]
Kill rates in % after 1d [1]: 70% | Kill rate in % after 6d (larvae) [2]: 80% | Kill rates in % after 6d [3]: 85% | Kill rates in % after 1d (larvae) [4]: 0%

N#C/N=C1\SCCN1Cc1ccc(Cl)nc1 [Ex. (IIk)]
Kill rate in % after 6d (larvae) [2]: 60% | Kill rates in % after 6d [3]: 55%

CCC(C)(C)C(=O)OC1=C(c2ccc(Cl)cc2Cl)C(=O)OC12CCCCC2 [Ex. (Ia)]
Kill rates in % after 1d [1]: 0% | Kill rate in % after 6d (larvae) [2]: 0% | Kill rates in % after 6d [3]: 0% | Kill rates in % after 1d (larvae) [4]: 0%
